{"source": "patent US20070142427A1", "about": "“Noncyclic 1,3-Dicarbonyl compounds as dual PPAR agonists with potent antihyperglycemic and antihyperlipidemic activity” (Shenzhen Chipscreen Biosciences Ltd., priority 2002, published 2007)", "key": {"[1]": {"system": "db/db mice", "assay": "Blood glucose lowering in db/db mice in vivo", "settings": "male db/db mice, once daily gavage for 9 days; measured at day 9 after 3 hours fasting after dosing, tail blood, Bayer Strips (FIG. 3)", "experimental": "(§1) 7 week-old male db/db (C57BLKS/J-m+/+Lepr^db) mice (n=10) from Jackson Laboratories (Bar Harbor, Me.) were treated once daily with indicated doses of the compound by gavage feeding at each morning for 9 consecutive days. All animals were maintained under standardized conditions (12-hour light/dark cycle, 22° C.). At day 9 of the treatment, blood glucose level was measured after 3 hours fasting after dosing by taking tail blood using Bayer Strips."}, "[2]": {"system": "db/db mice", "assay": "Blood triglyceride lowering in db/db mice in vivo", "settings": "male db/db mice, once daily gavage for 9 days; measured at day 9 after 3 hours fasting after dosing, tail blood, Roche Strips (FIG. 4)", "experimental": "as §1, with “triglyceride” for “glucose”, “Roche” for “Bayer”"}}}
{"smiles": "COC(=O)C(Cc1ccc(OCCOc2ccc3c(c2)CCCC3)cc1)C(=O)OC", "note": "[CS-01300012, dimethyl 4-[2-(5,6,7,8-tetrahydro-2-naphthoxy)ethoxy] benzylmalonate]", "values": [{"measurement": "blood glucose level", "setting": "[1]", "result": "effective in lowering blood glucose level"}, {"measurement": "blood triglyceride level", "setting": "[2]", "result": "effective in lowering blood triglyceride level"}]}
